# Measurements reported in paper PMC4975872 (Journal of biomolecular screening, 2014).
# Read-outs that look alike come from different tables or passages of the source.
# Tests used:
# [1] = tested on: ERK/β-arrestin interaction; test: ERK/β-arrestin interaction LinkLight assay, cytokine receptor response; type: cell-based, human; conditions: for S/B ratio: 0.1 μg/ml cytokine, Fig. S5; for EC50, stimulation of ERK/β-arrestin interaction signals by cytokines: endogenous cytokine receptors in U2OS cells, serum-free DMEM, 90 min, 37°C
# [2] = tested on: ERK/β-arrestin interaction; type: cell-based, human; conditions: antagonist 15 min, then 1 μM adrenaline for 90 min
# [3] = tested on: ERK/β-arrestin interaction; test: ERK/β-arrestin interaction LinkLight assay, RTK ligand responses; type: cell-based, human; conditions: endogenous RTKs in U2OS cells, serum-free DMEM, 90 min, 37°C
# [4] = tested on: ERK/β-arrestin interaction; type: cell-based, human; conditions: inhibitor 15 min in serum-free DMEM, then 5% FBS for 90 min
# [5] = tested on: ERK/β-arrestin interaction; conditions: 10 μM agonist, Fig. S5
# S1P (endogenous GPCR) = type: cell-based, U2OS; conditions: read-out: EC50 values; n = 3
molecule,measurement,setting,value
IL1β: recombinant human cytokine IL1β,S/B ratio,[1],14.5 fold
same,"EC50, stimulation of ERK/β-arrestin interaction signals by cytokines",[1],2.8 ng/mL
CN(C)CCN(C)CCc1ccc(Cl)c(Cl)c1 [BD-1047],inhibition of GPCR agonist-induced ERK/β-arrestin interaction signals,[2],inhibit
TNFα,S/B ratio,[1],8.99 fold
same,"EC50, stimulation of ERK/β-arrestin interaction signals by cytokines",[1],5.65 ng/mL
"EGF: epidermal growth factor, RTK ligand","EC50, stimulation of luciferase signals by RTK ligands",[3],3.75 ng/mL
Cc1nc(Nc2ncc(C(=O)Nc3c(C)cccc3Cl)s2)cc(N2CCN(CCO)CC2)n1 [dasatinib],inhibition of FBS-induced ERK/β-arrestin interaction signals,[4],blocked
O=C1Nc2ccc(I)cc2/C1=C/c1cc(Br)c(O)c(Br)c1 [GW5074],inhibition of FBS-induced ERK/β-arrestin interaction signals,[4],did not block
"FGF-b: growth factor FGF-basic, RTK ligand","EC50, stimulation of luciferase signals by RTK ligands",[3],3.87 ng/mL
CNC[C@H](O)c1ccc(O)c(O)c1 [adrenaline],S/B ratio,[5],3.78 fold
NCCc1ccc(O)c(O)c1 [dopamine],S/B ratio,[5],3.66 fold
"CCCCCCCCCCCCC/C=C/[C@@H](O)[C@@H](N)COP(=O)(O)O [S1P, sphingosine 1-phosphate]",EC50,S1P (endogenous GPCR),0.337 µM
O=C(NOCC1CC1)c1ccc(F)c(F)c1Nc1ccc(I)cc1Cl [CI-1040],inhibition of FBS-induced ERK/β-arrestin interaction signals,[4],did not block
